In PMC10338423, “Synthesis and preclinical evaluation of a novel fluorine-18 labeled small-molecule PET radiotracer for imaging of CXCR3 receptor in mouse models of atherosclerosis” (EJNMMI Research, 2023):

Test: Biodistribution study in normal C57BL/6 mice
Type: in vivo, mouse
Procedure: Biodistribution studies were also performed to discover the drug distribution within normal mice. 17-week-old male and female C57BL/6 mice were purchased to match the age of the imaging study group. [^18F]1 was intravenously injected into these mice (N = 4/time point), then they were sacrificed at 10, 30, and 60 min after the injection. Their major organs, including the brain, blood, lung, liver, stomach, heart, spleen, kidney, muscle, bone, large intestine, small intestine, aorta, liquinal lymph nodes (LN), interscapular BAT, and tail, were harvested. Their radioactivity was counted by an automated γ-counter. The biodistribution was calculated as an average of the percent injected dose per gram tissue (%ID/g tissue) where the counted radioactivity of each organ was divided by the weight of each tissue and the total radioactivity that circulated in the mouse body at the time of the euthanasia.
Seventeen-week-old male and female C57BL/6 mice were purchased to match the age of PET imaging mice. They were anesthetized in the anesthesia chamber using 3% isoflurane in oxygen and received 0.74–1.11 MBq of [^18F]1 in 100 μL of 5–10% EtOH in saline containing 0.5% sodium ascorbate. The injected mice were returned to their cages and free until the time of the study. At 10, 30, and 60 min after the [^18F]1 administration, each mouse (N = 4/time point) was anesthetized again and euthanized by cervical dislocation followed by cardiac puncture to take a blood sample. Then, the following organs were harvested: the brain, blood, heart, liver, lung, stomach, large intestine, small intestine, spleen, kidney, bone, muscle, liquinal LN, interscapular BAT, and tail. The radioactivity of each organ was counted by a PerkinElmer Wallac 1480 Wizard^3 Gamma Counter (Waltham, MA). The whole radioactivity that went into the circulation of the mouse was calculated by subtracting the residual radioactivity in the tail from the injected radioactivity. Therefore, the biodistribution was calculated as an average of the percent injected dose per gram of tissue (%ID/g tissue) by dividing the measured radioactivity by the whole radioactivity that actually went into the body and the weight of the tissue.

[1] = 10 min p.i., i.v., C57BL/6 mice

CC[C@H]1CN(c2ncc(-c3nnco3)cc2Cl)CCN1C1CCN(Cc2ccc(Cl)cc2[18F])CC1 [[^18F]1]
uptake in BAT [1]: 15 % ID/g
uptake in aorta [1]: 13 % ID/g
uptake in heart [1]: 12 % ID/g
uptake in kidney [1]: 22 % ID/g
uptake in liver [1]: 12 % ID/g
uptake in lung [1]: 27 % ID/g
uptake remaining relative to 10 min p.i. (lung, kidney, BAT, aorta, heart) (30 min p.i.): ~ 60%
uptake in liver (30 min p.i., i.v., C57BL/6 mice): 22 % ID/g
uptake remaining relative to 10 min p.i. (lung, kidney, BAT, aorta, heart) (60 min p.i.): ~ 40%
